From US10662204B2 (PFIZER INC., priority 2018, dated 2020) come the findings set out here.

The target of assay [1] is KRAS G12C (Homo sapiens, UniProt P01116, G12C). Put plainly: Cell Activity Assay: accumulation of GDP-bound KRAS G12C in MIAPaCa-2 cells (Raf-1 RBD capture, MSD readout). It counts as cell-based. The arrangement: endogenous in cells; host or cells: MIAPaCa-2. To be noted: 6 hours, assay limit is 30.00. Put shortly:
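MIAPaCa-2 cells exposed 6 h at 37 °C to 3-fold compound dilutions (0.3% DMSO final), then lysed. Active GTP-KRAS captured on Raf-1 RBD-coated plates, detected with anti-pan-Ras and SULFO-TAG secondary by MSD electrochemiluminescence. Signal normalized to DMSO and maximum inhibition; IC50 from 4-parameter fit.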

In assay [2] the target is T1, GDP-loaded KRAS (1-169) G12C, C51S, C80L, C118S (Homo sapiens, UniProt P01116, C118S/C51S/C80L/G12C).
T1 construct: GDP-loaded KRAS (1-169) G12C, C51S, C80L, C118S
In words: Mass Spectrometry Reactivity Assay (MSRA): covalent adduct of compound and KRAS G12C, Percent Modification. The format is binding. The note with it: for MSRA (% modification) 10 μM 0.50 hr / MSRA (% modification) 10 μM 0.25 hr: 10 μM compound; for MSRA (% modification) 5.0 μM 0.017 hr / MSRA (% modification) 5.0 μM 0.25 hr: 5.0 μM compound. Put shortly:
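GDP-loaded KRAS(1-169) G12C/C51S/C80L/C118S at 5 μM in 25 mM Hepes pH 7.5, 200 mM NaCl, 5% glycerol incubated at RT with compound (typically 5 or 10 μM final, 1% DMSO). Quenched in formic acid at 1-60 min; intact-protein LC-TOF MS gives % modification = modified/(modified+unmodified).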

Consider `C=CC(=O)N1CCN(c2nc(N3CC(N(C)C)C3)nc3c(Oc4c(Cl)c(C)cc5[nH]ncc45)cccc23)CC1` [Example 14E, 1-(4-{8-[(5-chloro-6-methyl-1H-indazol-4-yl)oxy]-2-[3-(dimethylamino)azetidin-1-yl]quinazolin-4-yl}piperazin-1-yl)prop-2-en-1-one], for which the IC50 (usually the concentration at which inhibition is half-maximal) in assay [1] stood at 1.01 µM. Besides, the “MSRA (% modification) 10 μM 0.50 hr” value in assay [2] was 65%.

Take `C=CC(=O)N1CCN(c2ncnc3c(Oc4c(C)cccc4Cl)nccc23)CC1` [Example 03, 1-{4-[8-(2-Chloro-6-methylphenoxy)pyrido[3,4-d]pyrimidin-4-yl]piperazin-1-yl}prop-2-en-1-one]: the IC50 in assay [1] was over 30 µM. Also, the “MSRA (% modification) 10 μM 0.50 hr” value in assay [2] came out at 15%.

Regarding `C=CC(=O)N1CCN(c2ncnc3c(Oc4c(Cl)c(F)cc5[nH]ncc45)cccc23)C[C@H]1C` [Example 17C, 1-[(2R)-4-{8-[(5-chloro-6-fluoro-1H-indazol-4-yl)oxy]quinazolin-4-yl}-2-methylpiperazin-1-yl]prop-2-en-1-one], the IC50 in assay [1] worked out at 2.6 µM. In addition, the “MSRA (% modification) 10 μM 0.50 hr” value in assay [2] came to 24%.

In turn, `C=CC(=O)N1CCN(c2nc(OC[C@@H]3CCCN3C)nc3c(Oc4c(Cl)c(F)cc5[nH]ncc45)cccc23)CC1` [Example 16E, 1-[4-(8-[(5-chloro-6-fluoro-1H-indazol-4-yl)oxy]-2-{[(2S)-1-methylpyrrolidin-2-yl]methoxy}quinazolin-4-yl)piperazin-1-yl]prop-2-en-1-one] had an IC50 in assay [1] of 0.413 µM. Further, the “MSRA (% modification) 10 μM 0.25 hr” value in assay [2] came to 11%.

In assay [1], `C#CCN1C[C@@H](OC)[C@H](Oc2nc(N3CCN(C(=O)C=C)CC3)c3ccnc(Oc4c(Cl)c(F)cc5[nH]ncc45)c3n2)C1` [Example 43I, 1-[4-(8-[(5-chloro-6-fluoro-1H-indazol-4-yl)oxy]-2-{[(3R,4R)-4-methoxy-1-(prop-2-yn-1-yl)pyrrolidin-3-yl]oxy}pyrido [3,4-d]pyrimidin-4-yl)piperazin-1-yl]prop-2-en-1-one] came in with an IC50 of 0.019 µM. For the same compound, the “MSRA (% modification) 5.0 μM 0.017 hr” value in assay [2] was 54%.

In assay [1], `C=CC(=O)N1CCN(c2nc(O[C@@H]3CN(C)CC[C@H]3C)nc3c(Oc4c(Cl)c(F)cc5[nH]ncc45)nccc23)CC1` (racemic) [Example 53I, rac-1-[4-(8-[(5-chloro-6-fluoro-1H-indazol-4-yl)oxy]-2-{[(3S,4R)-1,4-dimethyl-piperidin-3-yl]oxy}pyrido [3,4-d]pyrimidin-4-yl)piperazin-1-yl]prop-2-en-1-one] registered an IC50 of 0.059 µM. Besides, the “MSRA (% modification) 5.0 μM 0.017 hr” value in assay [2] worked out at 15%.

`C=CC(=O)N1CCN(c2nc(Oc3cccc4c3CCN(C(C)C)C4)nc3c(Oc4c(Cl)c(F)cc5[nH]ncc45)nccc23)CC1` [Example 19I, 1-[4-(8-[(5-chloro-6-fluoro-1H-indazol-4-yl)oxy]-2-{[2-(propan-2-yl)-1,2,3,4-tetrahydro-isoquinolin-5-yl]oxy}pyrido [3,4-d]pyrimidin-4-yl)piperazin-1-yl]prop-2-en-1-one] showed an IC50 in assay [1] of 0.003 µM. The “MSRA (% modification) 5.0 μM 0.017 hr” value in assay [2] came to 82%.

As for `C=CC(=O)N1CCN(c2ncnc3c(Oc4c(Br)c(C)cc5[nH]ncc45)nccc23)CC1` [Example 13A, 1-(4-{8-[(5-bromo-6-methyl-1H-indazol-4-yl)oxy]pyrido[3,4-d]pyrimidin-4-yl}piperazin-1-yl)prop-2-en-1-one], in assay [1], the IC50 was found to be 0.394 µM. Besides, in assay [2], the “MSRA (% modification) 10 μM 0.25 hr” value is 44% and the “MSRA (% modification) 10 μM 0.50 hr” value turned out to be 69%.

The compound `C=CC(=O)N1CCN(c2nc(OCc3nncn3C)nc3c(Oc4c(C)ccc5[nH]ncc45)cccc23)CC1` [Example 07F, 1-(4-{8-[(5-methyl-1H-indazol-4-yl)oxy]-2-[(4-methyl-4H-1,2,4-triazol-3-yl)methoxy]quinazolin-4-yl}piperazin-1-yl)prop-2-en-1-one] yielded an IC50 in assay [1] of 21.2 µM. Also, in assay [2], the “MSRA (% modification) 5.0 μM 0.25 hr” value is 22%, the “MSRA (% modification) 10 μM 0.25 hr” value was 74% and the “MSRA (% modification) 10 μM 0.50 hr” value is on record as 75%.

Take `C=CC(=O)N1CCN(c2nc(NCCC(=O)NC)nc3c(Oc4c(C)ccc5[nH]ncc45)cccc23)CC1` [Example 13F, N^3-{4-(4-acryloylpiperazin-1-yl)-8-[(5-methyl-1H-indazol-4-yl)oxy]quinazolin-2-yl}-N-methyl-β-alaninamide]: the IC50 in assay [1] turned out to be 17 µM. The “MSRA (% modification) 10 μM 0.50 hr” value in assay [2] is recorded as 26%.

On to `C=CC(=O)N1CCN(c2nc(N3CC(CN(C)C)C3)nc3c(Oc4c(C)ccc5[nH]ncc45)cccc23)CC1` [Example 10E, 1-[4-(2-{3-[(dimethylamino)methyl]azetidin-1-yl}-8-[(5-methyl-1H-indazol-4-yl)oxy]quinazolin-4-yl)piperazin-1-yl]prop-2-en-1-one], for which the IC50 in assay [1] turned out to be 2.32 µM. In addition, in assay [2], the “MSRA (% modification) 10 μM 0.50 hr” value is 21%.

The compound `C=CC(=O)N1CCN(c2nc(Oc3cccc4c3CCN(C)C4)nc3c(Oc4c(C)ccc5[nH]ncc45)nccc23)CC1` [Example 38I, 1-(4-{8-[(5-methyl-1H-indazol-4-yl)oxy]-2-[(2-methyl-1,2,3,4-tetrahydro-isoquinolin-5-yl)oxy]pyrido [3,4-d]pyrimidin-4-yl}piperazin-1-yl)prop-2-en-1-one] returned a half-maximal inhibitory concentration (IC50) in assay [1] of 0.055 µM. In assay [2], the “MSRA (% modification) 5.0 μM 0.017 hr” value is recorded as 55%.

In turn, `C=CC(=O)N1CCN(c2nc(Oc3cccc4c3CCN(C)C4)nc3c(Oc4c(Cl)ccc5[nH]ncc45)nccc23)CC1` [Example 48I, 1-(4-{8-[(5-chloro-1H-indazol-4-yl)oxy]-2-[(2-methyl-1,2,3,4-tetrahydro-isoquinolin-5-yl)oxy]pyrido [3,4-d]pyrimidin-4-yl}piperazin-1-yl)prop-2-en-1-one] displayed an IC50 in assay [1] of 0.006 µM. For the same compound, the “MSRA (% modification) 5.0 μM 0.017 hr” value in assay [2] is given as 67%.

Consider `C=CC(=O)N1CCN(c2ncnc3c(Oc4c(C(F)(F)F)ccc5[nH]ncc45)nccc23)CC1` [Example 04C, 1-[4-(8-{[5-(trifluoromethyl)-1H-indazol-4-yl]oxy}pyrido[3,4-d]pyrimidin-4-yl)piperazin-1-yl]prop-2-en-1-one], for which, in assay [1], the IC50 worked out at 18.2 µM. Also, the “MSRA (% modification) 10 μM 0.50 hr” value in assay [2] worked out at 21%.

On to `C=CC(=O)N1CCN(c2ncnc3c(Oc4c(Cl)c(F)cc5[nH]ncc45)nccc23)CC1` [Example 02C, 1-(4-{8-[(5-chloro-6-fluoro-1H-indazol-4-yl)oxy]pyrido[3,4-d]pyrimidin-4-yl}piperazin-1-yl)prop-2-en-1-one], for which the midpoint of inhibition in assay [1], the IC50, lay at 1.01 µM. In addition, in assay [2], the “MSRA (% modification) 5.0 μM 0.25 hr” value was found to be 12% and the “MSRA (% modification) 10 μM 0.50 hr” value came to 60%.

Take `C=CC(=O)N1CCN(c2ncnc3c(Cc4c(C)ccc5[nH]ncc45)cccc23)CC1` [Example 01D, 1-(4-{8-[(5-methyl-1H-indazol-4-yl)methyl]quinazolin-4-yl}piperazin-1-yl)prop-2-en-1-one]: half-maximal inhibition in assay [1] (IC50) was put at 6.69 µM. For the same compound, the “MSRA (% modification) 10 μM 0.50 hr” value in assay [2] is 37%.

Compound `C=CC(=O)N1CCN(c2nc(OC[C@@H]3CCCN3C)nc3c(Oc4c(Cl)c(C)cc5[nH]ncc45)nccc23)CC1` [Example 09H, 1-[4-(8-[(5-chloro-6-methyl-1H-indazol-4-yl)oxy]-2-{[(2S)-1-methylpyrrolidin-2-yl]methoxy}pyrido[3,4-d]pyrimidin-4-yl)piperazin-1-yl]prop-2-en-1-one] had an IC50 in assay [1] of 0.239 µM. Moreover, in assay [2], the “MSRA (% modification) 5.0 μM 0.25 hr” value came to 78%, the “MSRA (% modification) 10 μM 0.25 hr” value was determined as 81% and the “MSRA (% modification) 10 μM 0.50 hr” value turned out to be 83%.
